Data: patent US20250002475A1 (EPICS THERAPEUTICS, priority 2023, published 2025)

What was measured:
[1] = target: T1, recombinant METTL3/METTL14 complex (Homo sapiens, UniProt Q86U44); assay: METTL3/14 Scintillation Proximity Assay (SPA), RNA methyltransferase activity; type: biochemical; conditions: 5.31 nM METTL3/14 complex, 250 nM RNA substrate, 1 μM 3H-SAM, 90 min; for compounds marked * best of the two separated forms
T1 construct: purchased Active Motif 311970; host or cells: Sf9 cells

[2] = system: Caov-3 cells; assay: Caov-3 cellular viability assay (ATP-Lite, 72 h); type: cell-based; conditions: Homo sapiens, ATP-Lite luminescence, % viability relative to DMSO
Procedure, shortened: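 IC50 values come from concentration-response fits of luminescent ATP content (ATP-Lite One Step), normalised as % viability versus DMSO. Compound exposure was 72 h at 37 °C in RPMI-1640/10% FBS with 0.1% final DMSO. Wells held 10000 cells each.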

[3] = system: Kasumi-1 cells; assay: Kasumi-1 cellular viability assay (ATP-Lite, 72 h); type: cell-based; conditions: Homo sapiens, ATP-Lite luminescence, % viability relative to DMSO
Procedure, shortened: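 Viability was read by ATP-Lite One Step luminescence after 72 h compound treatment at 37 °C/5% CO2, normalised to DMSO control, with IC50 fitted from concentration-response. Cells were Kasumi-1 (AML FAB M2) at 15000 per well in RPMI-1640/10% FBS, 0.1% DMSO final.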

T1 sequence (Q86U44 whole entry): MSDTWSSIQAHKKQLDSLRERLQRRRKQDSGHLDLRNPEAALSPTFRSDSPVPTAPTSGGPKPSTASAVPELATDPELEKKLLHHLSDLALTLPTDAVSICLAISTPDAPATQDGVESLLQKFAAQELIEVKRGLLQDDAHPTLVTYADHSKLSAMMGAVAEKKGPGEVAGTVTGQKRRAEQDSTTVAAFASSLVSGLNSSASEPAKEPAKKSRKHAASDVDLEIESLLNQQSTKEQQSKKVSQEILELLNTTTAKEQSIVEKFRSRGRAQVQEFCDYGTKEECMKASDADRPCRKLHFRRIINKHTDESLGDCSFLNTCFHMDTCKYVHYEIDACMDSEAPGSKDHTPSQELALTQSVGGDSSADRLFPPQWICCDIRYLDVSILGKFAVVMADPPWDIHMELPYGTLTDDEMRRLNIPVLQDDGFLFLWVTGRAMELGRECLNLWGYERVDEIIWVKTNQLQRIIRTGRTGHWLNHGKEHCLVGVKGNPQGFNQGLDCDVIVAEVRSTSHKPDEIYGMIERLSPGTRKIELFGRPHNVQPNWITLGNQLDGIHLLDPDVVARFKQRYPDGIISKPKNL
T1 sequence (Q9HCE5 whole entry partner): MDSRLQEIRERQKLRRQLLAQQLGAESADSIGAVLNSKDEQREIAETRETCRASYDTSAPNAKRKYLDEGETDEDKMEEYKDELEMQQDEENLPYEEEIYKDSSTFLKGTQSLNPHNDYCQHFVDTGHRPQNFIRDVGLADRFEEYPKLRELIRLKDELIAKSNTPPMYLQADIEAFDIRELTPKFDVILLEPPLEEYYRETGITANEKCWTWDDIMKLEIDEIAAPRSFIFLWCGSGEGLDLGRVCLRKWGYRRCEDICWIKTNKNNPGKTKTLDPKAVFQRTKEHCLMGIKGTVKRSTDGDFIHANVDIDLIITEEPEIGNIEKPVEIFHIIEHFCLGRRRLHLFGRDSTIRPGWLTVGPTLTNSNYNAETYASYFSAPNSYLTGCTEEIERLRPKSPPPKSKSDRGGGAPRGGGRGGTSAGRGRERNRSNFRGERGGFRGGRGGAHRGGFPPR

SMILES | IC50 [1] [nM] | IC50 [2] [nM] | IC50 [3] [nM]
CC(n1cc(-c2cncc(C3CC3)c2)nn1)n1ccc(N2CCC[C@@H](NCC3CC3)C2)cc1=O (stereo partly drawn) [Compound 320, 4-((R)-3-((cyclopropylmethyl)amino)piperidin-1-yl)-1-(1-(4-(5-cyclopropylpyridin-3-yl)-1H-1,2,3-triazol-1-yl)ethyl)pyridin-2(1H)-one] | ≤ 50 | ≤ 500 | ≤ 500
O=C(Nc1cc(=O)n2ccccc2n1)C1(c2ccc(N3CCC[C@@H](NCC4CC4)C3)nc2)COC1 [Compound 321, (R)-3-(6-(3-((cyclopropylmethyl)amino)piperidin-1-yl)pyridin-3-yl)-N-(4-oxo-4H-pyrido[1,2-a]pyrimidin-2-yl)oxetane-3-carboxamide] | ≤ 50 | 500 to 5000 | 500 to 5000
O=C(Nc1cc(=O)n2ccccc2n1)C1(c2ccc(N3CCC[C@@H](NCC4CCC4)C3)nc2)COC1 [Compound 322, (R)-3-(6-(3-((cyclobutylmethyl)amino)piperidin-1-yl)pyridin-3-yl)-N-(4-oxo-4H-pyrido[1,2-a]pyrimidin-2-yl)oxetane-3-carboxamide] | ≤ 50 | 500 to 5000 | 500 to 5000
c1cc(C2(n3cc(-c4cncc(C5CC5)n4)nn3)COC2)ncc1N1CCC[C@@H](NCC2CC2)C1 [Compound 323, (R)-N-(cyclopropylmethyl)-1-(6-(3-(4-(6-cyclopropylpyrazin-2-yl)-1H-1,2,3-triazol-1-yl)oxetan-3-yl)pyridin-3-yl)piperidin-3-amine] | ≤ 50 | ≤ 500 | ≤ 500
O=C(Nc1cncc(N2CCCC2)n1)C1(c2ccc(N3CCC[C@@H](NCC4CC4)C3)nc2)COC1 [Compound 324, (R)-3-(6-(3-((cyclopropylmethyl)amino)piperidin-1-yl)pyridin-3-yl)-N-(6-(pyrrolidin-1-yl)pyrazin-2-yl)oxetane-3-carboxamide] | ≤ 50 | ≤ 500 | ≤ 500
O=C(Nc1cc(=O)n2ccccc2n1)C1(c2ccc(N3CCC[C@@H](NCC4CCCC4)C3)cn2)COC1 [Compound 325, (R)-3-(5-(3-((cyclopentylmethyl)amino)piperidin-1-yl)pyridin-2-yl)-N-(4-oxo-4H-pyrido[1,2-a]pyrimidin-2-yl)oxetane-3-carboxamide] | ≤ 50 | ≤ 500 | 500 to 5000
O=C(Nc1cc(=O)n2ccccc2n1)C1(c2ccc(N3CCC[C@@H](NC4CCCC4)C3)cn2)COC1 [Compound 326, (R)-3-(5-(3-(cyclopentylamino)piperidin-1-yl)pyridin-2-yl)-N-(4-oxo-4H-pyrido[1,2-a]pyrimidin-2-yl)oxetane-3-carboxamide] | ≤ 50 | ≤ 500 | 500 to 5000
O=C(Nc1cc(=O)n2ccccc2n1)C1(c2ccc(N3CCC[C@@H](NC4CCC4)C3)cn2)COC1 [Compound 327, (R)-3-(5-(3-(cyclobutylamino)piperidin-1-yl)pyridin-2-yl)-N-(4-oxo-4H-pyrido[1,2-a]pyrimidin-2-yl)oxetane-3-carboxamide] | ≤ 50 | 500 to 5000 | 500 to 5000
O=C(Nc1cc(=O)n2ccccc2n1)C1(c2ccc(N3CCC[C@@H](NCC4(C(F)(F)F)CC4)C3)cn2)COC1 [Compound 328, (R)-N-(4-oxo-4H-pyrido[1,2-a]pyrimidin-2-yl)-3-(5-(3-(((1-(trifluoromethyl)cyclopropyl)methyl)amino)piperidin-1-yl)pyridin-2-yl)oxetane-3-carboxamide] | ≤ 50 | ≤ 500 | 500 to 5000
CC(C)CN[C@@H]1CCCN(c2ccc(C3(n4cc(-c5cncc(C6CC6)c5)nn4)COC3)nc2)C1 [Compound 329, (R)-1-(6-(3-(4-(5-cyclopropylpyridin-3-yl)-1H-1,2,3-triazol-1-yl)oxetan-3-yl)pyridin-3-yl)-N-isobutylpiperidin-3-amine] | ≤ 50 | ≤ 500 | ≤ 500
O=C(Nc1cc(=O)n2ccccc2n1)C1(c2ccc(N3CCC[C@@H](NCC4(F)CC4)C3)cn2)COC1 [Compound 330, (R)-3-(5-(3-(((1-fluorocyclopropyl)methyl)amino)piperidin-1-yl)pyridin-2-yl)-N-(4-oxo-4H-pyrido[1,2-a]pyrimidin-2-yl)oxetane-3-carboxamide] | ≤ 50 | 500 to 5000 | 500 to 5000
CC1(CN[C@@H]2CCCN(c3ccc(C4(C(=O)Nc5cc(=O)n6ccccc6n5)COC4)nc3)C2)CC1 [Compound 331, (R)-3-(5-(3-(((1-methylcyclopropyl)methyl)amino)piperidin-1-yl)pyridin-2-yl)-N-(4-oxo-4H-pyrido[1,2-a]pyrimidin-2-yl)oxetane-3-carboxamide] | ≤ 50 | ≤ 500 | ≤ 500
FC1(CN[C@@H]2CCCN(c3ccc(C4(n5cc(-c6cncc(C7CC7)c6)nn5)COC4)nc3)C2)CC1 [Compound 332, (R)-1-(6-(3-(4-(5-cyclopropylpyridin-3-yl)-1H-1,2,3-triazol-1-yl)oxetan-3-yl)pyridin-3-yl)-N-((1-fluorocyclopropyl)methyl)piperidin-3-amine] | ≤ 50 | ≤ 500 | ≤ 500
CC1(CN[C@@H]2CCCN(c3ccc(C4(n5cc(-c6cncc(C7CC7)c6)nn5)COC4)nc3)C2)CC1 [Compound 333, (R)-1-(6-(3-(4-(5-cyclopropylpyridin-3-yl)-1H-1,2,3-triazol-1-yl)oxetan-3-yl)pyridin-3-yl)-N-((1-methylcyclopropyl)methyl)piperidin-3-amine] | ≤ 50 | ≤ 500 | ≤ 500
c1ncc(C2CC2)cc1-c1cn(C2(c3ccc(N4CCC[C@@H](NC5CCC5)C4)cn3)COC2)nn1 [Compound 334, (R)-N-cyclobutyl-1-(6-(3-(4-(5-cyclopropylpyridin-3-yl)-1H-1,2,3-triazol-1-yl)oxetan-3-yl)pyridin-3-yl)piperidin-3-amine] | ≤ 50 | ≤ 500 | ≤ 500
FC(F)(F)C1(CN[C@@H]2CCCN(c3ccc(C4(n5cc(-c6cncc(C7CC7)c6)nn5)COC4)nc3)C2)CC1 [Compound 335, (R)-1-(6-(3-(4-(5-cyclopropylpyridin-3-yl)-1H-1,2,3-triazol-1-yl)oxetan-3-yl)pyridin-3-yl)-N-((1-(trifluoromethyl)cyclopropyl)methyl)piperidin-3-amine] | ≤ 50 | ≤ 500 | 500 to 5000
O=C(Nc1cc(=O)n2ccccc2n1)C1(c2ccc(N3CCC[C@@H](NCC4(C(F)(F)F)CCC4)C3)cn2)COC1 [Compound 337, (R)-N-(4-oxo-4H-pyrido[1,2-a]pyrimidin-2-yl)-3-(5-(3-(((1-(trifluoromethyl)cyclobutyl)methyl)amino)piperidin-1-yl)pyridin-2-yl)oxetane-3-carboxamide] | ≤ 50 | ≤ 500 | 500 to 5000
O=C(Nc1cc(=O)n2ccccc2n1)C1(c2ccc(N3CCC[C@@H](NCC4CC(F)(F)C4)C3)cn2)COC1 [Compound 338, (R)-3-(5-(3-(((3,3-difluorocyclobutyl)methyl)amino)piperidin-1-yl)pyridin-2-yl)-N-(4-oxo-4H-pyrido[1,2-a]pyrimidin-2-yl)oxetane-3-carboxamide] | ≤ 50 | ≤ 500 | ≤ 500
